Experimental data as given in patent US10947188B2, “Small molecule ferroptosis inducers” (THE TRUSTEES OF COLUMBIA UNIVERSITY IN THE CITY OF NEW YORK, priority 2016, dated 2021).
Converted amounts (≈) assume the structure as drawn.

How the values were obtained:
HT-1080 cells = test: Lethality of commercially available CIL41/70 structural analogs; format: cell-based; conditions: Homo sapiens, tested once in technical triplicates
Method in brief: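 HT-1080 cells (1,000/well) dosed at seeding with twofold 12-point dilutions of lethal compounds. Viability read by Alamar Blue fluorescence (530/590 nm) after 6 h, normalized to media and vehicle wells. Analogs tested once, in technical triplicate.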

[1] = tested on: glutathione (GSH and GSSG) in HT-1080 cells; test: Glutathione-quantification assay; format: cell-based; conditions: 5 μM FIN56 with 100 μM α-tocopherol; 10 h
Protocol: Seeded 500,000 HT-1080 cells in a 10-cm dish. Cells were grown at 37° C. for 16 h. On the day of the analysis, cells were cotreated with 100 μM α-tocopherol and either vehicle (DMSO) or a ferroptosis inducer (10 μM erastin, 0.5 μM (1S,3R)-RSL3, or 5 μM FIN56) and incubated for 10 h. Cells were then trypsinized, pelleted, washed once with 400 μL of ice-cold PBS containing 1 mM EDTA, and sonicated. After the cell debris had been pelleted and removed, both oxidized and reduced glutathione in 120 μL of sample was quantified in technical triplicates using the QuantiChrome glutathione assay kit (BioAssay Systems). The glutathione quantity was normalized to the protein concentration measured via Bradford assay (Bio-Rad).

truncated human SQS = molecular target: T1, truncated human SQS (Homo sapiens, UniProt P37268); test: SQS competition assay with purified truncated SQS, FIN56 and active probe; format: binding; conditions: pre-incubation with 100 μM FIN56 for two hours
T1 construct: truncated human squalene synthase (SQS 31-370) in pET28a expression vector; made in house; host or cells: Escherichia coli BL21-Gold (DE3)
T1 sequence (P37268 31-370): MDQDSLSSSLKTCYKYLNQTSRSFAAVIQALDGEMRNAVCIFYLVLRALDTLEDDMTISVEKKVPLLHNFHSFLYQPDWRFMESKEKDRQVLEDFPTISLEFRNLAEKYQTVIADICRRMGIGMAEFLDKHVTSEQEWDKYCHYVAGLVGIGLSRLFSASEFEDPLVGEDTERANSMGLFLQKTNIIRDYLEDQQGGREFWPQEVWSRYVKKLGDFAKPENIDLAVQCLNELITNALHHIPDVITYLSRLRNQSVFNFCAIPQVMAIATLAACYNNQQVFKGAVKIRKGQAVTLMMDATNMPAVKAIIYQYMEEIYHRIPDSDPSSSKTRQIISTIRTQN
Protocol: Bacterial expression and purification of truncated human SQS for competition assay. The plasmid encoding the truncated human squalene synthase (SQS 31-370) in pET28a expression vector, kindly provided by Chia-I Liu and Andrew H. J. Wang (Academia Sinica, Taiwan), was confirmed by DNA sequencing (Gene Wiz, Inc.) and then used to transform Escherichia coli BL21-Gold (DE3) competent cells (Agilent Technologies). The cells with the construct were grown in LB media supplemented with 100 μg/mL […] at 37° C. until the OD600 reached 1. Protein expression was induced with 0.5 mM isopropyl β-D-thiogalactoside at 17° C. overnight (12-13 h). Cells were pelleted (4,000 g, 20 min, 4° C.) and lysed by sonication in SQS buffer (50 mM Tris, pH 7.4, 250 mM NaCl, 5 mM imidazole, 5 mM MgCl2, 1 mM TCEP). Cell lysate was then centrifuged at 15,000 g for 45 min at 4° C. The supernatant was loaded onto a chromatography column containing Ni Sepharose 6 Fast Flow beads (GE Life Sciences) equilibrated with SQS buffer. After two washes and one nonspecific wash of the beads, the bound SQS was eluted with 250 mM imidazole in the same buffer. The purity of eluted fractions was verified by SDS-PAGE as more than 90% pure. The fractions containing SQS were concentrated, flash-frozen, and stored at −80° C.
SQS competition assay with purified truncated SQS, FIN56, and active probe. […]

Compound	EC50 (HT-1080 cells)	glutathione depletion [1]	competition of SQS binding to active affinity probe (truncated human SQS)
N/C(=N\OC(=O)C12CC3CC(CC(C3)C1)C2)c1ccccc1 [CIL41]	2.8 µg/mL (≈ 9.38 µM)		
O=S(=O)(NC1CCCCC1)c1ccc2c(c1)C(=NO)c1cc(S(=O)(=O)NC3CCCCC3)ccc1-2 [FIN56, N2,N7-dicyclohexyl-9-(hydroxyimino)-9H-fluorene-2,7-disulfonamide]		did not deplete glutathione	efficiently suppressed
